Measurements from patent US11851696B2, “Microorganisms and process for producing glycolic acid from pentoses and hexoses” (Institut National Des Sciences Appliquées De Toulouse, priority 2018, dated 2023).

Tests used:
[1] = tested on: fructose-6-phosphate aldolase (FSA); conditions: aldolytic activity on D-arabinose-5-phosphate vs fructose-6-phosphate; cited from earlier work
[2] = molecular target: T1, E. coli K12 MG1655 aldehyde dehydrogenase (glycolaldehyde dehydrogenase, AldA), polyhistidine-tagged (aldA-His), wild type, SEQ ID NO: 4 (Escherichia coli, UniProt P25553); assay: AldA (aldehyde dehydrogenase) activity on glycolaldehyde, NADH at 340 nm; type: biochemical
T1 sequence (P25553 1-479): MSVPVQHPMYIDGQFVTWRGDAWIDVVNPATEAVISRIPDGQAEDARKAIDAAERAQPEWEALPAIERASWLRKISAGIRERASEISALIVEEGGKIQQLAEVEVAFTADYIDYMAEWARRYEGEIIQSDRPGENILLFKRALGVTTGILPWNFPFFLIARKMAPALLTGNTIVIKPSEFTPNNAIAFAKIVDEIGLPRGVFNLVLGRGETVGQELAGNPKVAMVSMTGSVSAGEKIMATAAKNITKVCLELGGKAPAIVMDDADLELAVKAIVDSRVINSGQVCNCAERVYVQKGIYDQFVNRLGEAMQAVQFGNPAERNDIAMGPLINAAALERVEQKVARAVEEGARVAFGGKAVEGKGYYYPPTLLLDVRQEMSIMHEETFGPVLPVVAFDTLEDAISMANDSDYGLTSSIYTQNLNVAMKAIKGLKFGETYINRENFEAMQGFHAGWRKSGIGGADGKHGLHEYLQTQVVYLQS
Excerpt: To construct a system in vitro, the inventors have cloned the ORFs (“Open Reading Frames”) of the xylose isomerase (XylA), xylulokinase (XylB), arabinose isomerase (AraA), ribulose kinase (AraB), L-ribulose-5-phosphate 4-epimerase (AraD), ribulose-5-phosphate-3-epimerase (RPE), D-arabinose-5-phosphate isomerase (KdsD), fructose-6-phosphate aldolase (FSA corresponding to FSAA such as previously defined) and aldehyde dehydrogenase (AdA) of E. coli K12 MG1655 with a polyhistidine tag for a facilitated purification. […] The E. coli genomic DNA which served as on template is that of the strain K12 MG1655.
A pre-culture in a LB (for “Luria-Bertani”) medium added with the antibiotic kanamycin is made overnight at 37° C. The pre-culture is used to seed a fresh culture of 200 mL of LB-Kanamycin at an optical density at 600 nm (OD600) of 0.1 (37° C., 200 rpm). When the OD600 is between 0.6 and 0.8, the expression of the protein of interest is induced by adding finally 1 mM IPTG. The proteins are expressed overnight at 16° C. The cells are collected as 50 ml fractions and centrifuged at 4 800 rpm for 15 min at 4° C. The cell pellets are preserved at −20° C. […]
Measurement of the aldehyde dehydrogenase (AldA) activity: this activity has been measured in the presence of 5 mM glycoaldehyde, 3 mM NAD^+ and 3 mM ATP. […]

[3] = substrate: O=P(O)(O)OC[C@H]1OC(O)[C@@H](O)[C@@H]1O; assay: FSA (fructose-6P aldolase) activity on D-arabinose-5P, coupled to AldA or to TPI and G3PDH, NADH at 340 nm; type: biochemical, Escherichia coli K12 MG1655; conditions: other: substrate D-arabinose-5P, 100 mM Tris, pH 7.5, 10 mM MgCl2, 37° C., coupled to AldA (2 mM NAD+) or TPI/G3PDH (0.4 mM NADH)
Excerpt: To construct a system in vitro, the inventors have cloned the ORFs (“Open Reading Frames”) of the xylose isomerase (XylA), xylulokinase (XylB), arabinose isomerase (AraA), ribulose kinase (AraB), L-ribulose-5-phosphate 4-epimerase (AraD), ribulose-5-phosphate-3-epimerase (RPE), D-arabinose-5-phosphate isomerase (KdsD), fructose-6-phosphate aldolase (FSA corresponding to FSAA such as previously defined) and aldehyde dehydrogenase (AdA) of E. coli K12 MG1655 with a polyhistidine tag for a facilitated purification. The oligonucleotides used for amplifying ORFS of the E. coli enzymes are listed in Table 3 below, the sequences SEQ ID NO: making reference to the appended sequence listing. The E. coli genomic DNA which served as on template is that of the strain K12 MG1655.
The plasmids for the expression of the C-terminal polyhistidine tagged proteins XylA, XylB, AraA, AraB, AraD, AraB, Rpe, KdsD, FSA, AdA have been constructed by HiFi Assembly® (NEB) with pET28a as a receiving vector. pET28a has been linearised beforehand with the restriction enzymes HindIII and BamHI (NEB) (Table 4). The E. coli strain NEB5®, derived from DH5 alpha, has been used for cloning and storing the different plasmids.
All the proteins expressed are soluble and have been produced from the expression vector pET28a transformed in an E. coli strain BL21 (DE3). […]

[4] = substrate: O=CCO; assay: purified protein, by the assay type; conditions: other: substrate glycolaldehyde, 100 mM Tris, pH 7.5, 10 mM MgCl2, 37° C., 3 mM NAD+, 3 mM ATP

For `O=P(O)(O)OC[C@H]1OC(O)[C@@H](O)[C@@H]1O` (stereo partly drawn) [D-arabinose-5P, D-arabinose-5-phosphate], the “affinity (times higher than for fructose-6-phosphate)” value [1] is given as 10 times.

For `O=CCO` [glycolaldehyde], the Vmax ([2]; substrate glycolaldehyde (5 mM glycoaldehyde in method), 100 mM Tris, pH 7.5, 10 mM MgCl2, 37° C., 3 mM NAD+, 3 mM ATP) was 1.16 ± 0.31 U mg^−1 and the Vmax/Km ([2]; substrate glycolaldehyde, pH 7.5, 37° C.) was 5 552 .10^−6 min^−1 mg^−1.

B1: E. coli K12 MG1655 fructose-6-phosphate aldolase (FSA, FSAA), polyhistidine-tagged (FSA-His), wild type, SEQ ID NO: 2 (Escherichia coli K-12) (protein)
chain: MELYLDTSDVVAVKALSRIFPLAGVTTNPSIIAAGKKPLDVVLPQLHEAMGGQGRLFAQVMATTAEGMVNDALKLRSIIADIVVKVPVTAEGLAAIKMLKAEGIPTLGTAVYGAAQGLLSALAGAEYVAPYVNRIDAQGGSGIQTVTDLHQLLKMHAPQAKVLAASFKTPRQALDCLLAGCESITLPLDVAQQMISYPAVDAAVAKFEQDWQGAFGRTSI
Molecule B1 has a Km [3] of 652 ± 150 µM and a Vmax [3] of 0.26 µmol/min/mg.

B2: E. coli K12 MG1655 aldehyde dehydrogenase (glycolaldehyde dehydrogenase, AldA), polyhistidine-tagged (aldA-His), wild type, SEQ ID NO: 4 (Escherichia coli K-12) (protein)
chain: MSVPVQHPMYIDGQFVTWRGDAWIDVVNPATEAVISRIPDGQAEDARKAIDAAERAQPEWEALPAIERASWLRKISAGIRERASEISALIVEEGGKIQQLAEVEVAFTADYIDYMAEWARRYEGEIIQSDRPGENILLFKRALGVTTGILPWNFPFFLIARKMAPALLTGNTIVIKPSEFTPNNAIAFAKIVDEIGLPRGVFNLVLGRGETVGQELAGNPKVAMVSMTGSVSAGEKIMATAAKNITKVCLELGGKAPAIVMDDADLELAVKAIVDSRVINSGQVCNCAERVYVQKGIYDQFVNRLGEAMQAVQFGNPAERNDIAMGPLINAAALERVEQKVARAVEEGARVAFGGKAVEGKGYYYPPTLLLDVRQEMSIMHEETFGPVLPVVAFDTLEDAISMANDSDYGLTSSIYTQNLNVAMKAIKGLKFGETYINRENFEAMQGFHAGWRKSGIGGADGKHGLHEYLQTQVVYLQS
Work on B2 yielded a Km [4] of 210 ± 50 µM.
